What was measured:
Dipeptidyl peptidase 4 = Dipeptidyl peptidase 4 (Homo sapiens, UniProt P27487); experiment: Inhibition of DPP4 (unknown origin) assessed as hydrolysis rate using Gly-pro-p-nitroanilide as substrate measured after 20 mins incubation by fluorometric assay
Rattus norvegicus [1] = organism: Rattus norvegicus; experiment: Anti-diabetic activity in STZ-induced type 2 diabetes male Wistar albino rat model assessed as fasting blood glucose level measured on day 1; assay type: functional
Rattus norvegicus [2] = organism: Rattus norvegicus; experiment: Anti-diabetic activity in STZ-induced type 2 diabetes male Wistar albino rat model assessed as fasting blood glucose level measured on day 28; assay type: functional

Dipeptidyl peptidase 4, sequence (P27487 whole entry): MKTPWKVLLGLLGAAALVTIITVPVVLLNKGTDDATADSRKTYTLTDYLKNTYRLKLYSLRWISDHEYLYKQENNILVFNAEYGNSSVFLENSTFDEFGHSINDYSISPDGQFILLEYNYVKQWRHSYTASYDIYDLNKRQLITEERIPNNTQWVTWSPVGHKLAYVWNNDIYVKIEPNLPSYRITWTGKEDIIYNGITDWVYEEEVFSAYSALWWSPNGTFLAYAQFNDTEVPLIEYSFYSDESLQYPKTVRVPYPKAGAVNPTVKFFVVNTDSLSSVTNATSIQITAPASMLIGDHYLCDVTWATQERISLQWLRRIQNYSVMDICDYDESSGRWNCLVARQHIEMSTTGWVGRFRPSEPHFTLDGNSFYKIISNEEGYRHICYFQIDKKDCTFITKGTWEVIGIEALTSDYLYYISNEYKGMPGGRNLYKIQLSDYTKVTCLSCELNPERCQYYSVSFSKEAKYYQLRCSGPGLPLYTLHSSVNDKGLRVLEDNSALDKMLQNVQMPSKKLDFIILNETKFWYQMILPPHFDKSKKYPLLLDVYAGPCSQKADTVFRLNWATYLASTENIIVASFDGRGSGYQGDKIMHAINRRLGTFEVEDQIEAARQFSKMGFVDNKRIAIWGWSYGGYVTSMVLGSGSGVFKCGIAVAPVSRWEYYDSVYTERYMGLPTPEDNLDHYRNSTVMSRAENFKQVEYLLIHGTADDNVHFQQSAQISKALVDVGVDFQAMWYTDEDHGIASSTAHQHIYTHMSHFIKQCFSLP

Compound	IC50 (Dipeptidyl peptidase 4)	Activity (Rattus norvegicus [1])	Activity (Rattus norvegicus [2])
CC1=C(CC(=O)N2CCCC(N)C2)C(C)NC(=O)N1 (stereo unspecified)	1190 nM	–	–
CS(=O)(=O)n1cc2c(n1)CN([C@H]1CO[C@H](c3cc(F)ccc3F)[C@@H](N)C1)C2 [OMARIGLIPTIN]	–	293 mg/dL	105 mg/dL
CC1=C(CC(=O)N2CCn3c(nnc3C(F)(F)F)C2)C(C)NC(=O)N1 (stereo unspecified)	2550 nM	–	–
CC1=C(C(=O)O)C(c2ccc(F)c(F)c2)N=C(N)N1C(=O)CN1CCC[C@H]1C(=O)O (stereo partly specified)	1060 nM	–	–

The remaining compounds from weak to strong by IC50 (Dipeptidyl peptidase 4), led by results:

IC50 (Dipeptidyl peptidase 4)	Compound	Activity (Rattus norvegicus [1])	Activity (Rattus norvegicus [2])
1060 nM	CC1=C(CC(=O)N2CCn3c(nnc3C(F)(F)F)C2)C(c2ccc(F)c(F)c2)NC(=O)N1 (stereo unspecified)	–	–
942 nM	CC1=C(CC(=O)N2Cc3cn(S(C)(=O)=O)nc3C2)C(C)NC(=O)N1 (stereo unspecified)	–	–
821 nM	CC1=C([N+](=O)[O-])C(c2ccc(F)c(F)c2)N=C(N)N1C(=O)CN1CCCC(N)C1 (stereo unspecified)	–	–
710 nM	CC1=C([N+](=O)[O-])C(c2ccc(F)c(F)c2)N=C(N)N1C(=O)CN1CCCC1C#N (stereo unspecified)	–	–
390 nM	CC1=C(C(=O)O)C(c2ccc(F)c(F)c2)N=C(N)N1C(=O)CN1CCCC1C#N (stereo unspecified)	–	–
266 nM	CC1=C(CC(=O)N2CCCC2C#N)C(c2ccc(F)c(F)c2)NC(=O)N1 (stereo unspecified)	–	–

Reference: ChEMBL document CHEMBL6127049, “Discovery of the selective and nanomolar inhibitor of DPP-4 more potent than sitagliptin by structure-guided rational design” (Eur J Med Chem, 2024)
